# Measurements reported in PMC8901636, “Preclinical studies of Flonoltinib Maleate, a novel JAK2/FLT3 inhibitor, in treatment of JAK2^V617F-induced myeloproliferative neoplasms” (Blood Cancer Journal, 2022).
# Where two headings read alike, the source gives them in different places.
# Key:
# JAK2/JAK2 signaling = assay: Cytokine-stimulated cell-based assay, GM-CSF-induced p-STAT5; conditions: western blotting
# JAK1/TYK2 pathway = assay: Cytokine-stimulated cell-based assay, IFN-α-induced p-STAT1; conditions: western blotting
# JAK1/JAK2 [1] = assay: Cytokine-stimulated cell-based assay, IFN-γ-induced p-STAT1 in U2OS cells; conditions: Homo sapiens
# JAK1/JAK2 [2] = assay: Cytokine-stimulated cell-based assay, G-CSF-induced p-STAT3 in HEL cells; conditions: Homo sapiens
# Source text: To further determine the selectivity of FM to inhibit different JAK isotypes in cell lines, we performed a series of cytokine-stimulated cell-based assays and assessed the signal transduction of JAK subtypes.
# (A) Inhibition of cytokine induced JAK auto-phosphorylation by FM in HEL cell lines. Raw data about HEL (B) and Ba/F3-JAK2^V617F (C) cells were supplemented with different concentrations of FM for cell cycle analysis. […] (F) p-FLT3, p-STAT5, and p-ERK in Molm-13 cell line were also assessed after 3 hours exposure with increasing concentrations of FM.
# Ba/F3-JAK2^WT = assay: MTT assay for cell proliferation; type: cell-based, Murine; conditions: Mus musculus, 72 h, read-out: IC50(μM) ± SD, tumor cell proliferation
# Method: (§1) For in vitro inhibition assays, cells were seeded in 96-well culture plates with a density of 15,000–20,000 cells/well after the cells reached 70–90% confluence. […] MTT (3-(4, 5-dimethylthiazol-2-yl)-2, 5-diphenyltetrazolium bromide) (Cat. No. 1334GR001; BioFroxx) assay was conducted in order to examine viability. The IC50 values were fitted using GraphPad Prism 7.0.
# Ba/F3-EPOR = assay: MTT assay for cell proliferation; type: cell-based, Murine; conditions: Mus musculus, 72 h, read-out: IC50(μM) ± SD, tumor cell proliferation
# Method: as §1
# MV-4-11 = assay: MTT assay for cell proliferation; type: cell-based; conditions: Homo sapiens, MV4-11, 72 h, read-out: IC50(μM) ± SD, tumor cell proliferation
# Method: as §1
# Ba/F3-FLT3-ITD^F691 = assay: MTT assay for cell proliferation; type: cell-based, Murine; conditions: Mus musculus, 72 h, read-out: IC50(μM) ± SD, tumor cell proliferation
# Method: as §1
# JAK2^V617F = JAK2^V617F bone marrow transplantation (BMT) myelofibrosis model; type: in vivo, BALB/c mice; conditions: for inhibition of splenomegaly: figure prints it with a minus sign over Spleen Wight (mg); for median survival time: vehicle 133.5 days; for BM Reticulin, fibrosis grade: bone marrow, WHO grading, vehicle MF-2
# [3] = PK and tissue distribution after repeated oral administration in Ba/F3-EPOR-JAK2^V617F tumor-bearing mice; type: in vivo; conditions: BALB/c nude, mouse, oral, 30 mg/kg, repeated
# [4] = brain, read-out: FM concentration, Brain
# [5] = heart, read-out: FM concentration, Heart
# [6] = intestine, read-out: FM concentration, Intestine
# [7] = kidney, read-out: FM concentration, Kidney
# [8] = liver, read-out: FM concentration, Liver
# [9] = lung, read-out: FM concentration, Lung
structure (smiles),measurement,setting,value
"Cc1cnc(Nc2ccc(N3CCC(N(C)CCO)CC3)c(F)c2)nc1-c1cnn(C(C)C)c1 [FM, 2-((1-(2-fluoro-4-((4-(1-isopropyl-1H-pyrazol-4-yl)-5-methylpyrimidin-2-yl)amino)phenyl)piperidin-4-yl)(methyl)amino)ethan-1-ol]",IC50,JAK2/JAK2 signaling,120 nM
same,IC50,JAK1/TYK2 pathway,> 5 µM
same,IC50,JAK1/JAK2 [1],390 nM
same,IC50,JAK1/JAK2 [2],460 nM
same,IC50,Ba/F3-JAK2^WT,0.39 ± 0.2 µM
same,IC50,Ba/F3-EPOR,0.55 ± 0.13 µM
same,IC50,MV-4-11,0.01 ± 0.01 µM
same,IC50,Ba/F3-FLT3-ITD^F691,0.15 ± 0.02 µM
same,inhibition of splenomegaly,JAK2^V617F; 15 mg/kg bid p.o.,97.11%
same,median survival time,JAK2^V617F; 15 mg/kg bid p.o.,> 180 days
same,inhibition of splenomegaly,JAK2^V617F; 30 mg/kg bid p.o.,101.62%
same,median survival time,JAK2^V617F; 30 mg/kg bid p.o.,> 180 days
same,inhibition of splenomegaly,JAK2^V617F; 45 mg/kg bid p.o.,101.24%
same,median survival time,JAK2^V617F; 45 mg/kg bid p.o.,> 180 days
same,"BM Reticulin, fibrosis grade",JAK2^V617F; 30 mg/kg,non-MF
same,"BM Reticulin, fibrosis grade",JAK2^V617F; 45 mg/kg,non-MF
same,concentration at 0 h,[3]; [4],6.3 ± 3.68 ng/g
same,concentration at 0.5 h,[3]; [4],283 ± 93.8 ng/g
same,concentration at 2 h,[3]; [4],369 ± 113 ng/g
same,concentration at 4 h,[3]; [4],492 ± 754 ng/g
same,concentration at 8 h,[3]; [4],47 ± 31.3 ng/g
same,concentration at 12 h,[3]; [4],10.8 ± 4.65 ng/g
same,concentration at 0 h,[3]; [5],7.06 ± 1.49 ng/g
same,concentration at 0.5 h,[3]; [5],1890 ± 756 ng/g
same,concentration at 2 h,[3]; [5],1320 ± 674 ng/g
same,concentration at 4 h,[3]; [5],578 ± 356 ng/g
same,concentration at 8 h,[3]; [5],357 ± 376 ng/g
same,concentration at 12 h,[3]; [5],15.8 ± 11.3 ng/g
same,concentration at 0 h,[3]; [6],21.4 ± 19.1 ng/g
same,concentration at 0.5 h,[3]; [6],31200 ± 12600 ng/g
same,concentration at 2 h,[3]; [6],4210 ± 1320 ng/g
same,concentration at 4 h,[3]; [6],9610 ± 6020 ng/g
same,concentration at 8 h,[3]; [6],1380 ± 1370 ng/g
same,concentration at 12 h,[3]; [6],250 ± 337 ng/g
same,concentration at 0 h,[3]; [7],16.6 ± 1.41 ng/g
same,concentration at 0.5 h,[3]; [7],11800 ± 3010 ng/g
same,concentration at 2 h,[3]; [7],7560 ± 1990 ng/g
same,concentration at 4 h,[3]; [7],4640 ± 1860 ng/g
same,concentration at 8 h,[3]; [7],1790 ± 1450 ng/g
same,concentration at 12 h,[3]; [7],174 ± 121 ng/g
same,concentration at 0 h,[3]; [8],12.9 ± 3.13 ng/g
same,concentration at 0.5 h,[3]; [8],4360 ± 3900 ng/g
same,concentration at 2 h,[3]; [8],6420 ± 1260 ng/g
same,concentration at 4 h,[3]; [8],6660 ± 5810 ng/g
same,concentration at 8 h,[3]; [8],1900 ± 1330 ng/g
same,concentration at 12 h,[3]; [8],151 ± 116 ng/g
same,concentration at 0 h,[3]; [9],18.5 ± 4 ng/g
same,concentration at 0.5 h,[3]; [9],11400 ± 1780 ng/g
same,concentration at 2 h,[3]; [9],7150 ± 1880 ng/g
